Test results: patent US20030143731A1, “Use of heterologous transcription factors in gene therapy” (ARIAD Gene Therapeutics, Inc., priority 1995, published 2003)

Experiments:
[1] = system: SEAP target gene in HT1080 cells; experiment: Rapamycin-dependent transcriptional activation in transiently transfected cells (ZFHD1-3FKBP + 1FRB-p65 fusions, SEAP); assay type: cell-based, human
Procedure: SEAP production was not detected in cells in which one or both of the transcription factor fusion plasmids was omitted, nor was it detected in the absence of added rapamycin. When all components were present, however, SEAP secretion was detectable at rapamycin concentrations as low as 0.5 nM. […] Similar results have been obtained when the same transcription factors were used to drive rapamycin-dependent activation of an hGH reporter gene or a stably integrated version of the SEAP reporter gene made by infection with a retroviral vector. It is difficult to determine the fold activation in response to rapamycin since levels of SEAP secretion in the absence of drug are undetectable, but it is clear that in this system there is at least a 1000-fold enhancement over background levels in the absence of rapamycin.
HT1080 cells (ATCC CCL-121), derived from a human fibrosarcoma, were grown in MEM supplemented with non-essential amino acids and 10% Fetal Bovine Serum. Cells plated in 24-well dishes (Falcon, 6×10^4 cells/well) were transfected using Lipofectamine under conditions recommended by the manufacturer (GIBCO/BRL). A total of 300 ng of the following DNA was transfected into each well: 100 ng ZFHD×12-CMV-SEAP reporter gene, 2.5 ng pCGNN-ZFHD1-3FKBP or other DNA binding domain fusion, 5 ng pCGNN-1FRB-p65(361-550) or other activation domain fusion and 192.5 ng pUC118. In cases where the DNA binding domain or activation domain were omitted an equivalent amount of empty pCGNN expression vector was substituted. Following lipofection (for 5 hours) 500 μl medium containing the indicated amounts of rapamycin was added to each well. After 24 hours, medium was removed and assayed for SEAP activity as described (Spencer et al, Science 262:1019-24, 1993) using a Luminescence Spectrometer (Perkin Elmer) at 350 nm excitation and 450 nm emission. Background SEAP activity, measured from mock-transfected cells, was subtracted from each value.

[2] = system: hGH reporter gene in transplanted transfected HT1080 cells; experiment: Rapamycin-dependent production of hGH in mice bearing transfected HT1080 cells; assay type: in vivo
Procedure: To prepare transiently transfected HT1080 cells for injection into mice (See below), cells in 100 mm dishes (2×10^6 cells/dish) were transfected by calcium phosphate precipitation for 16 hours (Gatz, C., Kaiser, A. & Wendenburg, R. , 1991,Mol. Gen. Genet. 227, 229-237) with the following DNAs: […] of ZHWT×12-CMV-hGH, […] pCGNN-ZFHD1-3FKBP, […] pCGNN-1FRB-p65(361-550) and […] pUC118. Transfected cells were rinsed 2 times with phosphate buffered saline (PBS) and given fresh medium for 5 hours. To harvest for injection, cells were removed from the dish in Hepes Buffered Saline Solution containing 10 mM EDTA, washed with PBS/0.1% BSA/0.1% glucose and resuspended in the same at a concentration of 2×10^7 cells/ml.
In Vivo Methods: Animals, husbandry, and general procedures. Male nu/nu mice were obtained from Charles River Laboratories (Wilmington, Mass.) and allowed to acclimate for five days prior to experimentation. They were housed under sterile conditions, were allowed free access to sterile food and sterile water throughout the entire experiment, and were handled with sterile techniques throughout.
To transplant transiently transfected cells into mice, 2×10^6 transfected HT1080 cells, were suspended in […] PBS/0.1% BSA/0.1% glucose buffer, and administered into four intramuscular sites (approximately […] per site) on the haunches and flanks of the animals. Control mice received equivalent volume injections of buffer alone.
(§1) Rapamycin was formulated for in vivo administration by dissolution in equal parts of N,N-dimethylacetamide and a 9:1 (v:v) mixture of polyethylene glycol (average molecular weight of 400) and polyoxyethylene sorbitan monooleate. Concentrations of rapamycin, in the completed formulation, were sufficient to allow for in vivo administration of the appropriate dose in a 2.0 ml/kg injection volume. The accuracy of the dosing solutions was confirmed by HPLC analysis prior to intravenous administration into the tail veins. Some control mice, bearing no transfected HT1080 cells, received 10.0 mg/kg rapamycin. In addition, other control mice, bearing transfected cells, received only the rapamycin vehicle.
Blood was collected by either anesthetizing or sacrificing mice via CO2 inhalation. Anesthetized mice were used to collect […] of blood by cardiac puncture. The mice were revived and allowed to recover for subsequent blood collections. Sacrificed mice were immediately exsanguinated. Blood samples were allowed to clot for 24 hours, at 4° C., and sera were collected following centrifugation at 1000×g for 15 minutes. Serum hGH was measured by the Boehringer Mannheim non-isotopic sandwich ELISA (Cat No. 1 585 878). […] Absorbance was read at 405 nm with a 490 nm reference wavelength on a Molecular Devices microtiter plate reader. […]

[3] = Circulating half-life and concentration in mice; assay type: in vivo
Procedure: as §1
To examine the kinetics of rapamycin control of hGH production, we treated animals with a single dose of rapamycin and then measured hGH levels at different times thereafter. […] The slower decay of serum hGH relative to rapamycin could reflect the presence of higher tissue concentrations of rapamycin in the vicinity of the implanted cells. Alternatively, persistence of hGH production from the engineered cells may be enhanced by the stability of hGH mRNA.
Therefore, to ascertain the ability of this system to elevate and maintain circulating hGH concentrations, we performed an experiment in which animals received multiple doses of rapamycin at 16-hour intervals. This interval corresponds to the time required for hGH levels to peak and then decline approximately half-way. According to this regimen, rapamycin concentration is predicted to approach a steady-state trough concentration of 1.7 μg/ml after two doses. hGH levels should also approach a steady state trough concentration following the second dose. […] In particular, it is apparent that protein production is rapidly terminated upon withdrawal of drug.

[4] = system: SEAP target gene in stably transfected HT1080 cells; experiment: Rapamycin-dependent SEAP production in stably transfected cell clone; assay type: cell-based, human; settings: stable clone, 100 nM rapamycin, SEAP assay length increased about 50-fold
Excerpt: We generated stable cell lines by sequential transfection of a SEAP target gene and expression vectors for ZFHD1-3FKBP and 1FRB-p65, respectively. […] From this pool, we characterized several individual clones, many of which produced high levels of SEAP in response to rapamycin. […] In an attempt to rigorously quantitate background SEAP production and induction ratio in this clone, we performed a second set of assays in which the length of the SEAP assay was increased by a factor of approximately 50 to detect any SEAP activity in untreated cells. Under these conditions, mock transfected cells produced 47 arbitrary fluorescence units, while the transfected clone produced 54 units in the absence of rapamycin and over 90,000 units at 100 nM rapamycin. […]
To simplify the task of stable transfection, we used a bicistronic expression vector that directs the production of both ZFHD1-3FKBP and 1FRB-p65 through the use of an internal ribosome entry sequence (IRES). […] All 12 clones analyzed were inducible and had little or no basal activity. […]
HT20-6 cells, which contain the pLH-ZHWT×12-IL2-SEAP reporter gene, ZFHD1-3FKBP DNA binding domain and 1FRB-p65(361-550) activation domain stably integrated, were generated by first infecting HT1080L cells with SMTN-ZFHD1-3FKBP-packaged retrovirus and selecting in medium containing […] G418. […] Eight positive clones were analyzed by addition of rapamycin. […]

[5] = five i.v. 10.0 mg/kg doses at 16-hour intervals

Compound | enhancement of SEAP over background levels in the absence of rapamycin [1] [fold] | rapamycin concentration of peak SEAP secretion ([1]; 24 hours) [nM] | lowest rapamycin concentration at which SEAP secretion was detectable ([1]; all components present, 24 hours) [nM] | half-life of hGH decline after the final rapamycin dose [2, 5] [h] | time hGH levels remained constant after the final dose [2, 5] [h] | half-life of decay of serum hGH concentration from its peak ([2]; single i.v. dose 10.0 mg/kg) | time after treatment at which serum hGH remained detectable ([2]; single i.v. dose 10.0 mg/kg) [h] | predicted steady-state trough concentration of rapamycin ([3]; after two doses, 10.0 mg/kg i.v. at 16-hour intervals) [µg/mL] | half-life ([3]; nu/nu, mouse, in vivo, iv, in these animals (mice), i.v., read-out: half-life of rapamycin (converted)) [min] | SEAP production [4] | half-life of hGH clearance from the circulation ([3]; in these animals (mice))
CO[C@H]1C[C@@H]2CC[C@@H](C)[C@@](O)(O2)C(=O)C(=O)N2CCCC[C@H]2C(=O)O[C@H]([C@H](C)C[C@@H]2CC[C@@H](O)[C@H](OC)C2)CC(=O)[C@H](C)/C=C(\C)[C@@H](O)[C@@H](OC)C(=O)[C@H](C)C[C@H](C)/C=C/C=C/C=C/1C [rapamycin] | ≥ 1000 | 5 | 0.5 | 6.8 | 16 | approximately 11 hours | 42 | 1.7 | 276 | over 90,000 arbitrary fluorescence units | 
hGH: human growth hormone, reporter gene product secreted by engineered cells |  |  |  |  |  |  |  |  |  |  | less than four
